Assay results published in US10730874B2 (Shire Human Genetic Therapies, Inc., priority 2018, dated 2020).

Target: human activated kallikrein enzyme (plasma kallikrein) (Homo sapiens (Human), UniProt P03952)
Experiment: Inhibition of human activated plasma kallikrein, fluorogenic peptide substrate assay, 500 pM enzyme format
Assay type: biochemical
Details: 500 pM activated kallikrein enzyme, 300 uM Pro-Phe-Arg-7-amido-4-methylcoumarin substrate, 30 min preincubation, 10 min at RT; read-out: Primary Dose Response Assay: Average EC50
How it was run: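 Buffer 20 mM Tris pH 7.5, EDTA, NaCl, PEG-400, Triton X-100; 300 uM Pro-Phe-Arg-AMC; enzyme–inhibitor preincubation 30 min RT. Format one: 500 pM kallikrein, 10 min RT reaction; format two: 5 pM kallikrein, 18 h RT reaction. Fluorescence read at 460 nm (380 nm excitation).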

human activated kallikrein enzyme (plasma kallikrein), sequence (P03952 391-638): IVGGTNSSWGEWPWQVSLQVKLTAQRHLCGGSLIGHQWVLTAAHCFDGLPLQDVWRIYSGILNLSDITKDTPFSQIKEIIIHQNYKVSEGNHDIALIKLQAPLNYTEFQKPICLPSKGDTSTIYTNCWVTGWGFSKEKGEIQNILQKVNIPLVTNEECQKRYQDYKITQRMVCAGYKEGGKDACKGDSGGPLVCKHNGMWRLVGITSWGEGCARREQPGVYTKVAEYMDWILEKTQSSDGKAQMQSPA
human activated kallikrein enzyme (plasma kallikrein), sequence (P03952 20-390 partner): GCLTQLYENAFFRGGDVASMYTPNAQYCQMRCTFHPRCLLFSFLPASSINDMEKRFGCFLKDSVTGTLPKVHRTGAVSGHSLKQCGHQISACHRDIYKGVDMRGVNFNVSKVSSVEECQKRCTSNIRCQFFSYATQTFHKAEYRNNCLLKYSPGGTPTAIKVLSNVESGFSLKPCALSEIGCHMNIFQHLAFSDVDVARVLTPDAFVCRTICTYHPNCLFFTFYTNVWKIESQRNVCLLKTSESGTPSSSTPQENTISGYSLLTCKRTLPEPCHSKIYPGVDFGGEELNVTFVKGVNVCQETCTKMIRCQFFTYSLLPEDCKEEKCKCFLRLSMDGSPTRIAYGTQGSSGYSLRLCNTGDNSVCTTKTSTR

Row | SMILES | EC50
1 | O=C(NCc1ncn2ccc(Cl)cc12)c1cnn(Cc2cn3cc(C4CC4)ccc3n2)n1 [Example I-121, N-((7-chloroimidazo[1,5-a]pyridin-1-yl)methyl)-2-((6-cyclopropylimidazo[1,2-a]pyridin-2-yl)methyl)-2H-1,2,3-triazole-4-carboxamide] | < 1 nM
2 | O=C(NCc1ncn2ccc(Cl)cc12)c1cnn(Cc2cn3cc(C4CC4)cc(C4(O)COC4)c3n2)c1 [Example I-122, N-((7-chloroimidazo[1,5-a]pyridin-1-yl)methyl)-1-((6-cyclopropyl-8-(3-hydroxyoxetan-3-yl)imidazo[1,2-a]pyridin-2-yl)methyl)-1H-pyrazole-4-carboxamide] | < 1 nM
3 | N#CNC(=NCc1ncn2ccc(Cl)cc12)c1cnn(Cc2cn3cc(C4CC4)ccc3n2)c1 [Example I-123, N′-((7-chloroimidazo[1,5-a]pyridin-1-yl)methyl)-N-cyano-1-((6-cyclopropylimidazo[1,2-a]pyridin-2-yl)methyl)-1H-pyrazole-4-carboximidamide] | 1 to 10 nM
4 | CC(c1cn2cc(C3CC3)ccc2n1)n1cc(C(=O)NCc2ncn3ccc(Cl)cc23)nn1 (stereo not drawn) [Example I-124, N-((7-chloroimidazo[1,5-a]pyridin-1-yl)methyl)-1-(1-(6-cyclopropylimidazo[1,2-a]pyridin-2-yl)ethyl)-1H-1,2,3-triazole-4-carboxamide] | 1 to 10 nM
5 | COCCc1cc(C2CC2)cn2cc(Cn3cc(C(=O)NCc4ncn5ccc(Cl)cc45)cn3)nc12 [Example I-125, N-((7-chloroimidazo[1,5-a]pyridin-1-yl)methyl)-1-((6-cyclopropyl-8-(2-methoxyethyl)imidazo[1,2-a]pyridin-2-yl)methyl)-1H-pyrazole-4-carboxamide] | < 1 nM
6 | O=C(NCc1ncn2ccc(Cl)cc12)c1cn(Cc2cn3cc(C4CC4)ccc3n2)nc1Cc1nn[nH]n1 [Example I-126, 3-((2H-tetrazol-5-yl)methyl)-N-((7-chloroimidazo[1,5-a]pyridin-1-yl)methyl)-1-((6-cyclopropylimidazo[1,2-a]pyridin-2-yl)methyl)-1H-pyrazole-4-carboxamide] | < 1 nM
7 | CCOC(=O)C1CC1c1cc(C2CC2)cn2cc(Cn3cc(C(=O)NCc4ncn5ccc(Cl)cc45)cn3)nc12 (stereo not drawn) [Example I-127, ethyl 2-(2-((4-(((7-chloroimidazo[1,5-a]pyridin-1-yl)methyl)carbamoyl)-1H-pyrazol-1-yl)methyl)-6-cyclopropylimidazo[1,2-a]pyridin-8-yl)cyclopropane-1-carboxylate] | < 1 nM
8 | N#Cc1cc(C2CC2)cn2cc(Cc3nnc(C(=O)NCc4ncn5ccc(Cl)cc45)o3)nc12 [Example I-128, N-((7-chloroimidazo[1,5-a]pyridin-1-yl)methyl)-5-((8-cyano-6-cyclopropylimidazo[1,2-a]pyridin-2-yl)methyl)-1,3,4-oxadiazole-2-carboxamide] | < 1 nM
9 | O=C(NCc1ncn2ccc(Cl)cc12)c1cnn(Cc2cn3cc(C4CC4)cnc3n2)c1 [Example I-129, N-((7-chloroimidazo[1,5-a]pyridin-1-yl)methyl)-1-((6-cyclopropylimidazo[1,2-a]pyrimidin-2-yl)methyl)-1H-pyrazole-4-carboxamide] | < 1 nM
10 | Cc1ccc2nc(Cn3cc(C(=O)NCc4ncn5ccc(Cl)cc45)cn3)cn2c1C [Example I-130] | 10 to 100 nM
11 | N#Cc1cc(C2CC2)cn2cc(Cn3cc(C(=O)NCc4ncn5ccc(Br)c(F)c45)nn3)nc12 [Example I-131, N-((7-bromo-8-fluoroimidazo[1,5-a]pyridin-1-yl)methyl)-1-((8-cyano-6-cyclopropylimidazo[1,2-a]pyridin-2-yl)methyl)-1H-1,2,3-triazole-4-carboxamide] | < 1 nM
12 | O=C(NCc1ncn2ccc(Cl)cc12)c1cnn(Cc2cn3cc(C4CC4)cc(C4COC4)c3n2)c1 [Example I-132, N-((7-chloroimidazo[1,5-a]pyridin-1-yl)methyl)-1-((6-cyclopropyl-8-(oxetan-3-yl)imidazo[1,2-a]pyridin-2-yl)methyl)-1H-pyrazole-4-carboxamide] | < 1 nM
13 | O=C(NCc1ncn2ccc(Cl)cc12)c1cnn(Cc2cn3cc(C4CC4)cc(C4CC4C(=O)O)c3n2)c1 (stereo not drawn) [Example I-133, 2-(2-((4-(((7-chloroimidazo[1,5-a]pyridin-1-yl)methyl)carbamoyl)-1H-pyrazol-1-yl)methyl)-6-cyclopropylimidazo[1,2-a]pyridin-8-yl)cyclopropane-1-carboxylic acid] | < 1 nM
14 | O=C(NCc1ncn2ccc(Br)c(F)c12)c1cn(Cc2cn3cc(C4CC4)ccc3n2)nn1 [Example I-134, N-((7-bromo-8-fluoroimidazo[1,5-a]pyridin-1-yl)methyl)-1-((6-cyclopropylimidazo[1,2-a]pyridin-2-yl)methyl)-1H-1,2,3-triazole-4-carboxamide] | < 1 nM
15 | O=C(NCc1ncn2ccc(Br)c(F)c12)c1nnn(Cc2cn3cc(C4CC4)ccc3n2)n1 [Example I-135, N-((7-bromo-8-fluoroimidazo[1,5-a]pyridin-1-yl)methyl)-2-((6-cyclopropylimidazo[1,2-a]pyridin-2-yl)methyl)-2H-tetrazole-5-carboxamide] | < 1 nM
16 | O=C(NCc1ncn2ccc(Br)c(F)c12)c1nnc(Cc2cn3cc(C4CC4)ccc3n2)o1 [Example I-136, N-((7-bromo-8-fluoroimidazo[1,5-a]pyridin-1-yl)methyl)-5-((6-cyclopropylimidazo[1,2-a]pyridin-2-yl)methyl)-1,3,4-oxadiazole-2-carboxamide] | < 1 nM
17 | O=C(NCc1ncn2ccc(Cl)c(F)c12)c1nnc(Cc2cn3cc(C4CC4)ccc3n2)o1 [Example I-137, N-((7-chloro-8-fluoroimidazo[1,5-a]pyridin-1-yl)methyl)-5-((6-cyclopropylimidazo[1,2-a]pyridin-2-yl)methyl)-1,3,4-oxadiazole-2-carboxamide] | < 1 nM
18 | O=C(NCc1ncn2ccc(Cl)cc12)c1nnc(Cc2cn3nc(C4CC4)ccc3n2)o1 [Example I-138, N-((7-chloroimidazo[1,5-a]pyridin-1-yl)methyl)-5-((6-cyclopropylimidazo[1,2-b]pyridazin-2-yl)methyl)-1,3,4-oxadiazole-2-carboxamide] | < 1 nM
19 | O=C(NCc1ncn2ccc(Br)c(F)c12)c1cn(Cc2cn3nc(C4CC4)ccc3n2)nn1 [Example I-139, N-((7-bromo-8-fluoroimidazo[1,5-a]pyridin-1-yl)methyl)-1-((6-cyclopropylimidazo[1,2-b]pyridazin-2-yl)methyl)-1H-1,2,3-triazole-4-carboxamide] | < 1 nM
20 | O=C(NCc1ncn2ccc(Br)c(F)c12)c1nnc(Cc2cn3nc(C4CC4)ccc3n2)o1 [Example I-140, N-((7-bromo-8-fluoroimidazo[1,5-a]pyridin-1-yl)methyl)-5-((6-cyclopropylimidazo[1,2-b]pyridazin-2-yl)methyl)-1,3,4-oxadiazole-2-carboxamide] | < 1 nM
21 | O=C(NCc1ncn2ccc(Cl)cc12)c1cnn(Cc2cn3cc(C4CC4)cc(C(O)C4COC4)c3n2)c1 (stereo not drawn) [Example I-141, N-((7-chloroimidazo[1,5-a]pyridin-1-yl)methyl)-1-((6-cyclopropyl-8-(hydroxy(oxetan-3-yl)methyl)imidazo[1,2-a]pyridin-2-yl)methyl)-1H-pyrazole-4-carboxamide] | < 1 nM
